From patent publication US20100204150A1, “USE OF A PEPTIDE AS A THERAPEUTIC AGENT” (priority 2007, published 2010)
Where no end group is shown, it is not given here. [ ]: non-standard residue; d: D form.

Legend:
HIV-1IIIB = test: HIV-1 antiviral assay in CEM-SS cells (MTS readout)
HCMV strain AD169 = test: HCMV plaque formation assay in MRC-5 cells; settings: 10 micrograms per ml, 7-10 days
Interleukin-2 (IL-2) = test: Th1/Th2 cytokine profiling assay: IL-2; assay type: cell-based, mouse; settings: 10 micrograms per ml; Ovalbumin-restimulated murine spleen cells; 72 hours
Protocol: (§1) On day 50, spleens of the mice were harvested (3 weeks after last boost with Ovalbumin). Cells were cultured (2×10^5/well in triplicate) and incubated with culture medium or test peptides—10 micrograms per ml—for 30 min. […] This kit can be used to measure Interleukin-2 (IL-2), Interleukin-4 (IL-4), Interleukin-5 (IL-5), Interferon-γ (IFN-γ), and Tumor Necrosis Factor-a (TNF-a) protein levels in a single sample. The kit performance has been optimized for analysis of physiologically relevant concentrations (μg/ml levels) of specific cytokine proteins in tissue culture supernatants and serum samples.

[1] = system: Tumor Necrosis Factor-a (TNF-a); test: Th1/Th2 cytokine profiling assay: TNF-alpha; assay type: cell-based, mouse; settings: 10 micrograms per ml; Ovalbumin-restimulated murine spleen cells; 72 hours
Protocol: as §1

[2] = system: hepatitis B virus (HBV) ayw strain; test: HBV assay in HepG2-2.2.15 cells (secreted HBV DNA, TaqMan PCR); assay type: cell-based; settings: 10 micrograms per ml, six days, combination 0.95 mole peptide 1 and 1.05 mole peptide 2
From the text: HepG2-2.2.15 is a stable cell line containing the hepatitis B virus (HBV) ayw strain genome (ATCC Cat. No. CRL-11997). Antiviral compounds blocking any late step of viral replication such as transcription, translation, pregenome encapsidation, reverse transcription, particle assembly and release can be identified and characterized using this cell line. In this assay, an active compound will reduce the production of secreted HBV from cells, measured by utilizing real time quantitative PCR (TaqMan) assay to directly and accurately measure HBV DNA copies.
HepG2-2.2.15 cells were plated in 96-well microtiter plates. After 16-24 hours the confluent monolayer of HepG2-2.2.15 cells was washed and the medium was replaced with complete medium containing test peptides—10 micrograms per ml—in duplicate. […] Six days following the initial administration of the peptides, the cell culture supernatants was collected, treated with pronase and DNAse and then used in a real-time quantitative TaqMan PCR assay. The PCR-amplified HBV DNA was detected in real-time by monitoring increases in fluorescence signals that result from the exonucleolytic degradation of a quenched fluorescence probe molecule that hybridizes to the amplified HBV DNA. […] Antiviral activity was calculated from the reduction in HBV DNA levels (% virus control). […]

[3] = system: Primary Human endothelial cells (HUVEC); test: Endothelial cell migration assay; assay type: cell-based; settings: 10 micrograms per ml, 22 hours
Protocol: Thereafter, designated concentration of testing peptides was added in duplicate wells.

HUVEC = test: Endothelial tube formation assay; assay type: cell-based, human; settings: 10 micrograms per ml, 20 hours
From the text: Positive control was vehicle only.

Interleukin-5 (IL-5) = test: Th1/Th2 cytokine profiling assay: IL-5; assay type: cell-based, mouse; settings: 10 micrograms per ml; Ovalbumin-restimulated murine spleen cells; 72 hours
Protocol: as §1

Interleukin-4 (IL-4) = test: Th1/Th2 cytokine profiling assay: IL-4; assay type: cell-based, mouse; settings: 10 micrograms per ml; Ovalbumin-restimulated murine spleen cells; 72 hours
Protocol: as §1

Interferon-γ (IFN-γ) = test: Th1/Th2 cytokine profiling assay: IFN-γ; assay type: cell-based, mouse; settings: 10 micrograms per ml; Ovalbumin-restimulated murine spleen cells; 72 hours
Protocol: as §1

Row | Compound | antiviral activity of positive control compounds (HIV-1) (HIV-1IIIB) | inhibition of HCMV plaque formation as compared to the virus control experiment (HCMV strain AD169) | increase of the production of IL-2 (Interleukin-2 (IL-2)) [%] | change of the production of TNF-alpha [1] | inhibition of HBV replication as compared to the virus control infection [2] [%] | increase of the migration of endothelial cells [3] [%] | increase of the tube formation of human endothelial cells (HUVEC) [%] | change of the production of IL-5 (Interleukin-5 (IL-5)) | increase of the production of IL-4 (Interleukin-4 (IL-4)) [%] | increase of the production of IFN-γ (Interferon-γ (IFN-γ)) [%] | inhibition of the migration of human endothelial cells [3] [%] | decrease of the production of IL-5 (Interleukin-5 (IL-5)) [%] | change of the production of IL-4 (Interleukin-4 (IL-4)) | decrease of the production of IFN-γ (Interferon-γ (IFN-γ)) [%]
1 | Cc1cn([C@H]2C[C@H](N=[N+]=[N-])[C@@H](CO)O2)c(=O)[nH]c1=O [AZT] | expected levels of antiviral activity |  |  |  |  |  |  |  |  |  |  |  |  | 
2 | CC(C)(C)NC(=O)[C@@H]1CN(Cc2cccnc2)CCN1C[C@@H](O)C[C@@H](Cc1ccccc1)C(=O)N[C@H]1c2ccccc2C[C@H]1O [indinavir] | expected levels of antiviral activity |  |  |  |  |  |  |  |  |  |  |  |  | 
3 | Ac-Arg-Phe-Met-Trp-Met-Arg-NH2 (Ac-RFMWMR-NH2) [Peptide 2] |  | 2.9% | 56.5 | did not significantly change | 26.3 | 15 | 4 | did not significantly change | 56.2 | 118.6 |  |  |  | 
4 | HPFHL[dL]VY-OH [Peptide 1] |  | did not inhibit | 82.1 | did not significantly change | 24.3 |  | 2 |  |  |  | 26 | 34.5 | did not significantly change | 43.3
